The text below walks through data of ChEMBL document CHEMBL4145566, “Isoindolinones, Phthalides, and a Naphthoquinone from the Fruiting Body of Daldinia concentrica” (J Nat Prod, 2018).

The experiment has as its system HUVEC. Description: Antiangiogenic activity in HUVEC assessed as inhibition of cell proliferation after 18 hrs by WST-8 reagent based assay. It counts as functional. The settings on record: Homo sapiens. Background: Tetrazolium dyes change colour on reduction, which living cells bring about.

SMILES strings stand for the structures. pIC50: −log10 of the molar value.

The term pIC50 denotes the IC50 on a negative log10 scale, so that one unit is a factor of ten. As for `C=C1[C@@H](C)[C@H]2[C@H](Cc3ccccc3)NC(=O)[C@]23OC(=O)/C=C/[C@@H](O)CCC[C@@H](C)C/C=C/[C@H]3[C@@H]1O`, the pIC50 is 6.70.

Take `COc1cccc2c1C(=O)C(=O)C=C2c1ccc(O)c2c(OC)cccc12`: the pIC50 is 5.12.
